Experiments:
[1] = system: U251 Glioblastoma cell line; test: Cytotoxicity assay (MTT, 72 hours, daily administration) in U251; format: cell-based; conditions: Homo sapiens, U-251, read-out: % VIABILITY ± S.D.
Text: (§1) The combinations were effective in other human tumor cell lines and we tested in glioblastoma cell line and endometrial cancer cell Additional tests include data obtained from two independent experiments, six wells for dose.

[2] = system: PCEM004a endometrial cancer cell line; test: Cytotoxicity assay (MTT, 72 hours, daily administration) in PCEM004a; format: cell-based; conditions: Homo sapiens, read-out: % VIABILITY ± S.D.
Text: as §1

[3] = system: pancreatic adenocarcinoma associated genes; test: TaqMan Array gene expression in PANC-1, normalized for GAPDH; conditions: 24 hs, CBD 3.8, MLT 200, AKBA 7.5 micrograms/ml
Procedure: Total RNA from untreated or CBD, MLT, AKBA alone and in combination treated cell lines was extracted using Rneasy Mini kit (Qiagen, Milan, Italy). One microgram of total RNA from each sample was subjected to reverse transcription in a total volume of 20 μL using the High-Capacity cDNA Archive Kit (Applied Biosystem, Foster City, […], USA) according to the instructions. cDNAs were analyzed by qRT-PCR performed using an IQ5 Multicolor Real time PCR Detection system. Quantitative real-time gene expression was performed with the TaqMan® Array Human Pancreatic Adenocarcinoma 96-well Plate, containing 92 assays to pancreatic adenocarcinoma associated genes and 4 assays to candidate endogenous control genes, was purchased (Thermo Fisher, Grand Island, NY, USA) and used to evaluate the treatments in modulating PDAC-related genes (Table 1). Measurement of different housekeeping genes (GAPDH; HPRT1; GUSB) on the samples was used to normalize mRNA content. The gene expression levels of treated cell lines were expressed as relative fold compared with untreated or vehicle-treated cells.
To elucidate the molecular events induced by CBD, MLT and AKBA alone and in combination, 92 genes involved in PDAC progression and aggressiveness were evaluated by Taqman Array. Both cell lines were treated with CBD, MLT and AKBA alone and in combination, and the molecular pathways of PDAC associated gene were evaluated.
Target mRNA levels were normalized for GAPDH expression.

[4] = system: PANC-1 cell line; test: Cytotoxicity assay (MTT, 72 hours, daily administration) in PANC-1; conditions: Homo sapiens, PANC-1, read-out: % VIABILITY ± S.D.
Procedure: (§2) Human pancreatic ductal adenocarcinoma (PANC-1 and MIAPaCa-2) cell lines were purchased by Sigma Aldrich (Milan, Italy) and cultured in DMEM high glucose medium (EuroClone, Milan, Italy) supplemented with 10% of fetal bovine serum (FBS), 2 mM L-glutamine, 100 IU/mL penicillin, 100 mg streptomycin and 1 mM sodium pyruvate. Cell lines were maintained at 37° C. with 5% CO2 and 95% of humidity.
(§3) 3×10^4 cells/mL were seeded in 96-well plates in a final volume of 100 L/well. After one day of incubation, compounds or vehicles, alone or in combination, were added and six replicates were used for each treatment and all experiments were repeated three times. In all the experiments, the treatment was daily added, after washing with fresh medium. After 72 hours cell viability was investigated by adding 0.8 mg/mL of 3-[4,5-dimethylthiazol-2-yl]-2,5 diphenyl tetrazolium bromide (MTT) (Sigma Aldrich) to the media. After 3 h the supernatant was removed, and the pellet of salt crystals was solubilized with 100 μL/well of DMSO. The absorbance of the sample against a background control was measured at 570 nm using an ELISA reader microliter plate (BioTek Instruments, Winooski, VT, USA).
(§4) Cytotoxicity in PDAC cell lines: The effect of CBD, MLT and AKBA in reducing cell viability was evaluated at 72 hours, post daily administration, in PDAC cell lines. Cells were treated with different doses of CBD, MLT and AKBA (up to 1 mg) and percentage of cell viability was evaluated by the MTT assay. […] The compounds were administered daily for 72 hours, as in previous experiments at the desired doses. […] MTT assay was used to analyse the cell cytotoxicity.

[5] = system: MIAPaCa-2 cell line; test: Cytotoxicity assay (MTT, 72 hours, daily administration) in MIAPaCa-2; conditions: Homo sapiens, MIA PaCa-2, read-out: % VIABILITY ± S.D.
Procedure: as §2, §3, §4

Work on `COc1ccc2[nH]cc(CCNC(C)=O)c2c1` [MLT, N-[2-(5-methoxy-1H-indol-3-yl)ethyl]acetamide] yielded a viability at 100 µg/mL [1] of 100 ± 2.3%, a viability at 200 µg/mL [1] of 65.4 ± 4.4% and a viability at 400 µg/mL [1] of 58.2 ± 4.1%. It also gave a viability at 800 µg/mL [1] of 17 ± 1.1%, a viability at 100 µg/mL [2] of 96.5 ± 8.2% and a viability at 200 µg/mL [2] of 90.4 ± 6.2%. For the same molecule, the viability at 400 µg/mL [2] was 80.1 ± 5.3%, the viability at 800 µg/mL [2] was 31.3 ± 2.8% and the “AKT3 mRNA relative expression” value ([3]; VEI 0.00) was 0.00. The “ARHGEF7 mRNA relative expression” value ([3]; VEI 0.00) was 0.017, the “BCL2 mRNA relative expression” value ([3]; VEI 0.00) was 0.00 and the “CCND2 mRNA relative expression” value ([3]; VEI 0.00) was 0.00. For the same molecule, the “CDKN2B mRNA relative expression” value ([3]; VEI 0.00) was 1.65, the “CYP2E1 mRNA relative expression” value ([3]; VEI 0.00) was 0.00 and the “EGF mRNA relative expression” value ([3]; VEI 0.00) was 0.00. For the same molecule, the “IGF1 mRNA relative expression” value ([3]; VEI 0.00) was 0.00, the “IL6 mRNA relative expression” value ([3]; VEI 0.00) was 0.00 and the “KDR mRNA relative expression” value ([3]; VEI 0.00) was 0.00. The “KIT mRNA relative expression” value ([3]; VEI 0.00) was 0.01, the “MAPK3 mRNA relative expression” value ([3]; VEI 0.00) was 0.00 and the “MMP1 mRNA relative expression” value ([3]; VEI 0.00) was 0.07. For the same molecule, the “MMP3 mRNA relative expression” value ([3]; VEI 0.00) was 0.00, the “TGFA mRNA relative expression” value ([3]; VEI 0.00) was 0.22 and the “TGFB2 mRNA relative expression” value ([3]; VEI 0.00) was 0.00. For the same molecule, the “JAK2 mRNA relative expression” value ([3]; VEI 0.01) was 0.01, the “JAK3 mRNA relative expression” value ([3]; VEI 0.01) was 0.00 and the “MMP7 mRNA relative expression” value ([3]; VEI 0.01) was 0.01. The “MMP9 mRNA relative expression” value ([3]; VEI 0.01) was 0.04, the “PK3CA mRNA relative expression” value ([3]; VEI 0.01) was 0.00 and the “RAC2 mRNA relative expression” value ([3]; VEI 0.01) was 0.01. The “RB1 mRNA relative expression” value ([3]; VEI 0.01) was 0.03, the “TGFB3 mRNA relative expression” value ([3]; VEI 0.01) was 0.00 and the “TGFBR1 mRNA relative expression” value ([3]; VEI 0.02) was 0.00. For the same molecule, the “BRCA2 mRNA relative expression” value ([3]; VEI 0.03) was 0.34, the “CDKN2D mRNA relative expression” value ([3]; VEI 0.03) was 0.04 and the “MDM2 mRNA relative expression” value ([3]; VEI 0.03) was 0.00. For the same molecule, the “RHOB mRNA relative expression” value ([3]; VEI 0.03) was 0.03, the “CDKN2C mRNA relative expression” value ([3]; VEI 0.04) was 0.14 and the “PK3R1 mRNA relative expression” value ([3]; VEI 0.04) was 0.02. The “PTGS2 mRNA relative expression” value ([3]; VEI 0.04) was 0.02, the “STATSB mRNA relative expression” value ([3]; VEI 0.04) was 0.45 and the “MAPK1 mRNA relative expression” value ([3]; VEI 0.05) was 0.02. The “SMAD2 mRNA relative expression” value ([3]; VEI 0.05) was 0.19, the “CCND1 mRNA relative expression” value ([3]; VEI 0.06) was 0.10 and the “MAP2K2 mRNA relative expression” value ([3]; VEI 0.06) was 0.08. For the same molecule, the “PK3CD mRNA relative expression” value ([3]; VEI 0.06) was 0.06, the “TGFBR2 mRNA relative expression” value ([3]; VEI 0.06) was 0.00 and the “VEGFA mRNA relative expression” value ([3]; VEI 0.06) was 0.03. The “VEGFB mRNA relative expression” value ([3]; VEI 0.06) was 0.05, the “CCNA2 mRNA relative expression” value ([3]; VEI 0.07) was 0.07 and the “CCNE2 mRNA relative expression” value ([3]; VEI 0.07) was 0.07. For the same molecule, the “EZF3 mRNA relative expression” value ([3]; VEI 0.07) was 0.08, the “SMAD4 mRNA relative expression” value ([3]; VEI 0.07) was 0.08 and the “SOS1 mRNA relative expression” value ([3]; VEI 0.07) was 0.06. For the same molecule, the “TGFB1 mRNA relative expression” value ([3]; VEI 0.07) was 0.05, the “MAP2K1 mRNA relative expression” value ([3]; VEI 0.08) was 0.03 and the “MMP2 mRNA relative expression” value ([3]; VEI 0.08) was 0.00. The “VEGFC mRNA relative expression” value ([3]; VEI 0.08) was 0.00, the “CCNE1 mRNA relative expression” value ([3]; VEI 0.09) was 0.11 and the “CDK2 mRNA relative expression” value ([3]; VEI 0.09) was 0.07. For the same molecule, the “KRAS mRNA relative expression” value ([3]; VEI 0.09) was 0.01, the “RAC1 mRNA relative expression” value ([3]; VEI 0.09) was 0.00 and the “REL mRNA relative expression” value ([3]; VEI 0.09) was 0.08. For the same molecule, the “STAT2 mRNA relative expression” value ([3]; VEI 0.09) was 0.00, the “CDKN1B mRNA relative expression” value ([3]; VEI 0.10) was 0.09 and the “CDKN2A mRNA relative expression” value ([3]; VEI 0.10) was 0.16. For the same molecule, the “RELA mRNA relative expression” value ([3]; VEI 0.10) was 0.00, the “AKT1 mRNA relative expression” value ([3]; VEI 0.11) was 0.10 and the “PK3CB mRNA relative expression” value ([3]; VEI 0.11) was 0.13. The “FIGF mRNA relative expression” value ([3]; VEI 0.14) was 0.11, the “TP53 mRNA relative expression” value ([3]; VEI 0.14) was 0.29 and the “EZF4 mRNA relative expression” value ([3]; VEI 0.16) was 0.16. The “NFKB2 mRNA relative expression” value ([3]; VEI 0.16) was 0.02, the “EZF1 mRNA relative expression” value ([3]; VEI 0.17) was 0.14 and the “SMAD3 mRNA relative expression” value ([3]; VEI 0.17) was 0.22. For the same molecule, the “STAT1 mRNA relative expression” value ([3]; VEI 0.18) was 0.12, the “BRAF mRNA relative expression” value ([3]; VEI 0.22) was 0.13 and the “BIRC5 mRNA relative expression” value ([3]; VEI 0.23) was 0.13. The “JAK1 mRNA relative expression” value ([3]; VEI 0.23) was 0.02, the “CDK4 mRNA relative expression” value ([3]; VEI 0.24) was 0.17 and the “EGFR mRNA relative expression” value ([3]; VEI 0.24) was 0.16. For the same molecule, the “RAF1 mRNA relative expression” value ([3]; VEI 0.25) was 0.06, the “CCNB1 mRNA relative expression” value ([3]; VEI 0.27) was 0.33 and the “ERBB2 mRNA relative expression” value ([3]; VEI 0.27) was 0.04. For the same molecule, the “SRC mRNA relative expression” value ([3]; VEI 0.27) was 0.03, the “GRB2 mRNA relative expression” value ([3]; VEI 0.31) was 0.23 and the “BCL2L1 mRNA relative expression” value ([3]; VEI 0.35) was 0.21. The “HSP90AA1 mRNA relative expression” value ([3]; VEI 0.35) was 0.00, the “NFKB1 mRNA relative expression” value ([3]; VEI 0.35) was 0.09 and the “RHOA mRNA relative expression” value ([3]; VEI 0.37) was 0.07. The “ELK1 mRNA relative expression” value ([3]; VEI 0.41) was 0.09, the “RELB mRNA relative expression” value ([3]; VEI 0.42) was 0.06 and the “CDC42 mRNA relative expression” value ([3]; VEI 0.45) was 0.00. The “CDKN1A mRNA relative expression” value ([3]; VEI 0.49) was 0.07, the “AKT2 mRNA relative expression” value ([3]; VEI 0.50) was 0.46 and the “HBEGF mRNA relative expression” value ([3]; VEI 0.53) was 0.39. The “NOTCH1 mRNA relative expression” value ([3]; VEI 1.03) was 0.32, the “STAT6 mRNA relative expression” value ([3]; VEI 1.38) was 0.01 and the “STAT3 mRNA relative expression” value ([3]; VEI 4.45) was 0.07. For the same molecule, the viability at 100 µg/mL [4] was 100 ± 5.7%, the viability at 200 µg/mL [4] was 97.4 ± 6.1% and the viability at 400 µg/mL [4] was 83.9 ± 6.1%. For the same molecule, the viability at 800 µg/mL [4] was 19.2 ± 1.1%, the viability at 100 µg/mL [5] was 100 ± 8.8% and the viability at 200 µg/mL [5] was 87.8 ± 8.2%. For the same molecule, the viability at 400 µg/mL [5] was 78.2 ± 8.5% and the viability at 800 µg/mL [5] was 12.5 ± 0.8%.

Source: patent US20240180872A1, “METHODS AND COMPOUNDS OF CANNABIDIOL, MELATONIN AND AKBA FOR TREATING PANCREATIC CANCER” (priority 2021, published 2024)
